Laboratory results: BigSolDB 2.1

## Cc1ccc(NC(=O)/C(=C/Cl)Sc2ccccc2)cc1
In 1,2-dichloroethane, 278.15 K
  solubility (mole fraction): 0.0353
In 1,2-dichloroethane, 283.15 K
  solubility (mole fraction): 0.0413
In 1,2-dichloroethane, 288.15 K
  solubility (mole fraction): 0.0512
In 1,2-dichloroethane, 293.15 K
  solubility (mole fraction): 0.0615
In 1,2-dichloroethane, 298.15 K
  solubility (mole fraction): 0.0773
In 1,2-dichloroethane, 303.15 K
  solubility (mole fraction): 0.0942
In 1,2-dichloroethane, 308.15 K
  solubility (mole fraction): 0.115
In 1,2-dichloroethane, 313.15 K
  solubility (mole fraction): 0.136
In 1,2-dichloroethane, 318.15 K
  solubility (mole fraction): 0.161
In 2-butanone, 278.15 K
  solubility (mole fraction): 0.0308
In 2-butanone, 283.15 K
  solubility (mole fraction): 0.0365
In 2-butanone, 288.15 K
  solubility (mole fraction): 0.0436
In 2-butanone, 293.15 K
  solubility (mole fraction): 0.0529
In 2-butanone, 298.15 K
  solubility (mole fraction): 0.0632
In 2-butanone, 303.15 K
  solubility (mole fraction): 0.0772
In 2-butanone, 308.15 K
  solubility (mole fraction): 0.0943
In 2-butanone, 313.15 K
  solubility (mole fraction): 0.112
In 2-butanone, 318.15 K
  solubility (mole fraction): 0.135
In 2-methyltetrahydrofuran, 278.15 K
  solubility (mole fraction): 0.0393
In 2-methyltetrahydrofuran, 283.15 K
  solubility (mole fraction): 0.0466
In 2-methyltetrahydrofuran, 288.15 K
  solubility (mole fraction): 0.0507
In 2-methyltetrahydrofuran, 293.15 K
  solubility (mole fraction): 0.0604
In 2-methyltetrahydrofuran, 298.15 K
  solubility (mole fraction): 0.0702
In 2-methyltetrahydrofuran, 303.15 K
  solubility (mole fraction): 0.0858
In 2-methyltetrahydrofuran, 308.15 K
  solubility (mole fraction): 0.103
In 2-methyltetrahydrofuran, 313.15 K
  solubility (mole fraction): 0.126
In 2-methyltetrahydrofuran, 318.15 K
  solubility (mole fraction): 0.145
In MTBE, 278.15 K
  solubility (mole fraction): 0.0068
In MTBE, 283.15 K
  solubility (mole fraction): 0.0075
In MTBE, 288.15 K
  solubility (mole fraction): 0.0092
In MTBE, 293.15 K
  solubility (mole fraction): 0.0104
In MTBE, 298.15 K
  solubility (mole fraction): 0.0132
In MTBE, 303.15 K
  solubility (mole fraction): 0.0153
In MTBE, 308.15 K
  solubility (mole fraction): 0.0187
In MTBE, 313.15 K
  solubility (mole fraction): 0.0223
In MTBE, 318.15 K
  solubility (mole fraction): 0.0277
In THF, 278.15 K
  solubility (mole fraction): 0.0849
In THF, 283.15 K
  solubility (mole fraction): 0.0953
In THF, 288.15 K
  solubility (mole fraction): 0.105
In THF, 293.15 K
  solubility (mole fraction): 0.118
In THF, 298.15 K
  solubility (mole fraction): 0.133
In THF, 303.15 K
  solubility (mole fraction): 0.154
In THF, 308.15 K
  solubility (mole fraction): 0.171
In THF, 313.15 K
  solubility (mole fraction): 0.195
In THF, 318.15 K
  solubility (mole fraction): 0.218
In acetone, 278.15 K
  solubility (mole fraction): 0.0216
In acetone, 283.15 K
  solubility (mole fraction): 0.0258
In acetone, 288.15 K
  solubility (mole fraction): 0.0296
In acetone, 293.15 K
  solubility (mole fraction): 0.0364
In acetone, 298.15 K
  solubility (mole fraction): 0.0452
In acetone, 303.15 K
  solubility (mole fraction): 0.0564
In acetone, 308.15 K
  solubility (mole fraction): 0.0707
In acetone, 313.15 K
  solubility (mole fraction): 0.0889
In acetone, 318.15 K
  solubility (mole fraction): 0.114
In acetonitrile, 278.15 K
  solubility (mole fraction): 0.0043
In acetonitrile, 283.15 K
  solubility (mole fraction): 0.0051
In acetonitrile, 288.15 K
  solubility (mole fraction): 0.0065
In acetonitrile, 293.15 K
  solubility (mole fraction): 0.0086
In acetonitrile, 298.15 K
  solubility (mole fraction): 0.0115
In acetonitrile, 303.15 K
  solubility (mole fraction): 0.0148
In acetonitrile, 308.15 K
  solubility (mole fraction): 0.02
In acetonitrile, 313.15 K
  solubility (mole fraction): 0.0267
In acetonitrile, 318.15 K
  solubility (mole fraction): 0.0362
In ethyl acetate, 278.15 K
  solubility (mole fraction): 0.0187
In ethyl acetate, 283.15 K
  solubility (mole fraction): 0.0233
In ethyl acetate, 288.15 K
  solubility (mole fraction): 0.0271
In ethyl acetate, 293.15 K
  solubility (mole fraction): 0.0331
In ethyl acetate, 298.15 K
  solubility (mole fraction): 0.0409
In ethyl acetate, 303.15 K
  solubility (mole fraction): 0.0522
In ethyl acetate, 308.15 K
  solubility (mole fraction): 0.0657
In ethyl acetate, 313.15 K
  solubility (mole fraction): 0.0794
In ethyl acetate, 318.15 K
  solubility (mole fraction): 0.0978
In isopropanol, 278.15 K
  solubility (mole fraction): 0.0019
In isopropanol, 283.15 K
  solubility (mole fraction): 0.0021
In isopropanol, 288.15 K
  solubility (mole fraction): 0.0025
In isopropanol, 293.15 K
  solubility (mole fraction): 0.0031
In isopropanol, 298.15 K
  solubility (mole fraction): 0.0041
In isopropanol, 303.15 K
  solubility (mole fraction): 0.0048
In isopropanol, 308.15 K
  solubility (mole fraction): 0.0063
In isopropanol, 313.15 K
  solubility (mole fraction): 0.0075
In isopropanol, 318.15 K
  solubility (mole fraction): 0.0093
In methyl acetate, 278.15 K
  solubility (mole fraction): 0.0153
In methyl acetate, 283.15 K
  solubility (mole fraction): 0.0195
In methyl acetate, 288.15 K
  solubility (mole fraction): 0.0228
In methyl acetate, 293.15 K
  solubility (mole fraction): 0.028
In methyl acetate, 298.15 K
  solubility (mole fraction): 0.0352
In methyl acetate, 303.15 K
  solubility (mole fraction): 0.0471
In methyl acetate, 308.15 K
  solubility (mole fraction): 0.0572
In methyl acetate, 313.15 K
  solubility (mole fraction): 0.0693
In methyl acetate, 318.15 K
  solubility (mole fraction): 0.0797
In tert-amyl alcohol, 278.15 K
  solubility (mole fraction): 0.0013
In tert-amyl alcohol, 283.15 K
  solubility (mole fraction): 0.0015
In tert-amyl alcohol, 288.15 K
  solubility (mole fraction): 0.0018
In tert-amyl alcohol, 293.15 K
  solubility (mole fraction): 0.0026
In tert-amyl alcohol, 298.15 K
  solubility (mole fraction): 0.0034
In tert-amyl alcohol, 303.15 K
  solubility (mole fraction): 0.005
In tert-amyl alcohol, 308.15 K
  solubility (mole fraction): 0.0068
In tert-amyl alcohol, 313.15 K
  solubility (mole fraction): 0.0096
In tert-amyl alcohol, 318.15 K
  solubility (mole fraction): 0.0129
In toluene, 278.15 K
  solubility (mole fraction): 0.014
In toluene, 283.15 K
  solubility (mole fraction): 0.0165
In toluene, 288.15 K
  solubility (mole fraction): 0.0202
In toluene, 293.15 K
  solubility (mole fraction): 0.0266
In toluene, 298.15 K
  solubility (mole fraction): 0.0318
In toluene, 303.15 K
  solubility (mole fraction): 0.0443
In toluene, 308.15 K
  solubility (mole fraction): 0.0551
In toluene, 313.15 K
  solubility (mole fraction): 0.069
In toluene, 318.15 K
  solubility (mole fraction): 0.0876
